Laboratory results taken from PMC6556873, “Rapid Covalent-Probe Discovery by Electrophile-Fragment Screening” (Journal of the American Chemical Society, 2019).
Where two headings read alike, the source gives them in different places.

Key:
in vitro [1] = assay: in vitro; parameters: species or system CCD841, HEK293; settings: human, hb2 cells, read-out: HB-2 Cells Viability (%)
in vitro [2] = assay: in vitro; parameters: species or system HB2, CCD841; settings: human, hek293 cells
in vitro [3] = assay: in vitro; parameters: species or system HB2, HEK293; settings: human, ccd841 cells
NUDT7 = target: T1, NUDT7 (Homo sapiens, UniProt P0C024); parameters: Intact protein LC/MS covalent labelling, fragments in pools of five, 200 uM each, 4 °C; settings: 24 h, 4 °C, pool of five; 200 µM; covalent
T1 construct: residues 14-235, E. coli, pNIC28-Bsa4, N-terminal His6 tag removed by TEV, construct 26672 Da
T1 sequence (P0C024 14-235): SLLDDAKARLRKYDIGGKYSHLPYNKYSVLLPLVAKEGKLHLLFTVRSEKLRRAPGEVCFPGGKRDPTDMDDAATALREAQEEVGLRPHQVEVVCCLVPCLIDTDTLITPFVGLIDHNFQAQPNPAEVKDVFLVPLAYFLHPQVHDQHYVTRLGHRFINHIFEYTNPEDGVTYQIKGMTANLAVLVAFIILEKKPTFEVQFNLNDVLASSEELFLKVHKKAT

BSA = target: T2, BSA (Bos taurus, UniProt P02769); parameters: Intact protein LC/MS covalent labelling, fragments in pools of five, 200 uM each, 4 °C; settings: 24 h, 4 °C, pool of five; 200 µM; covalent
T2 construct: gene ALB
T2 sequence (P02769 whole entry, the tested form may be a part): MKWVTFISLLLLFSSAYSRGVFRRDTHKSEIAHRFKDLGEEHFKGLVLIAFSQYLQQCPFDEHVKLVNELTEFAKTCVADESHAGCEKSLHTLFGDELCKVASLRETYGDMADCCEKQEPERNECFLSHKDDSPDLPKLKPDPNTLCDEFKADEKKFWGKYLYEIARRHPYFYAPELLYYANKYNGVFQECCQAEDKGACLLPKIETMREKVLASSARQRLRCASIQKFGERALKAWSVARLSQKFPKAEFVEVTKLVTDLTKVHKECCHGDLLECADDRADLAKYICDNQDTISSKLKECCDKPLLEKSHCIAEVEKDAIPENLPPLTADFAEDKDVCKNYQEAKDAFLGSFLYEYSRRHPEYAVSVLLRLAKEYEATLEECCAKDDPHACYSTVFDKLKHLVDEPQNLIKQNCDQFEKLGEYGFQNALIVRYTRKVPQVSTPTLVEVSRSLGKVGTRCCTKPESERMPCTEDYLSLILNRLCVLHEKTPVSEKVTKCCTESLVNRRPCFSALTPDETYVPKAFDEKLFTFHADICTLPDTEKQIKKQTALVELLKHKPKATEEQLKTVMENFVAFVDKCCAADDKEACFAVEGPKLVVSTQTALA

PCAF = target: T3, PCAF (Homo sapiens, UniProt Q92831); parameters: Intact protein LC/MS covalent labelling, fragments in pools of five, 200 uM each, 4 °C; settings: 24 h, 4 °C, pool of five; 200 µM; covalent
T3 construct: gene KAT2B
T3 sequence (Q92831 whole entry, the tested form may be a part): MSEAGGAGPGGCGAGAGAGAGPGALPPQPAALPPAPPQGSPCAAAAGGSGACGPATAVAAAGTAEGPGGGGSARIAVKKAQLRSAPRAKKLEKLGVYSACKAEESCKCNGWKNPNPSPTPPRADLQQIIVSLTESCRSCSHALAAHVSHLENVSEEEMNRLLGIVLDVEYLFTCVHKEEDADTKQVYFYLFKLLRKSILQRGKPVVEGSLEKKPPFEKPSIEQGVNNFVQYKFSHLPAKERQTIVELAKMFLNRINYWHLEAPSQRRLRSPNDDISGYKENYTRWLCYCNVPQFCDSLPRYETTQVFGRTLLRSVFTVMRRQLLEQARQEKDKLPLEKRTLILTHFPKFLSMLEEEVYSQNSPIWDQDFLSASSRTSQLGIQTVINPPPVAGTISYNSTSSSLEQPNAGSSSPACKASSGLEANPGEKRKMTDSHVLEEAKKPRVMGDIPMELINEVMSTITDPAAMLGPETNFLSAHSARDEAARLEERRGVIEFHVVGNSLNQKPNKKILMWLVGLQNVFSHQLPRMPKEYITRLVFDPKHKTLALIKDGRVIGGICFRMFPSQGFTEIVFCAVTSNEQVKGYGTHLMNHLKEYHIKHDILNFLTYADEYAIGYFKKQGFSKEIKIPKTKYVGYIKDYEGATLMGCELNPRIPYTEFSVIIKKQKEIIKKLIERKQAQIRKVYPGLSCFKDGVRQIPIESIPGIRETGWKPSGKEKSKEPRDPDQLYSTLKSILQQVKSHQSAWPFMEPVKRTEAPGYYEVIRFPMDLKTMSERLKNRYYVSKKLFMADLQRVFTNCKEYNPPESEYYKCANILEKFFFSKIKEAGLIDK

OTUB2 (OTUB2A) = target: T4, OTUB2 (OTUB2A) (Homo sapiens, UniProt Q96DC9); parameters: Intact protein LC/MS covalent labelling, fragments in pools of five, 200 uM each, 4 °C; settings: 24 h, 4 °C, pool of five; 200 µM; covalent
T4 construct: full length residues 1-234, E. coli BL21(DE3)-R3, His tag removed by TEV, construct 27312 Da
T4 sequence (Q96DC9 1-234): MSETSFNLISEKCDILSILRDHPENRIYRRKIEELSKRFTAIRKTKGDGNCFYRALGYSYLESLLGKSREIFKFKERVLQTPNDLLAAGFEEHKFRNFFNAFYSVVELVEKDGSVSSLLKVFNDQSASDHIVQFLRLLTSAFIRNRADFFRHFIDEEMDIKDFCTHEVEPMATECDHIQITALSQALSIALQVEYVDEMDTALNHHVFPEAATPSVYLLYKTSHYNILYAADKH

Row | Structure (SMILES) | viability at 48 h, 10 µM (in vitro [1]) | viability at 48 h, 10 µM (in vitro [2]) | viability at 48 h, 10 µM (in vitro [3]) | NUDT7 (NUDT7) | BSA (BSA) | PCAF (PCAF) | OTUB2 (OTUB2 (OTUB2A))
1 | CNC(=O)C1CN(C(=O)CCl)c2ccccc2O1 (stereo not drawn) [PCM-0102221] | 82.1% | 53% | 58.1% | 0 | 0 | 0 | 0.15
2 | Cc1cc(NC(=O)CCl)n(-c2ccc(F)cc2)n1 [PCM-0102665] | 57% | 20.6% | 67.6% | 0 | 0 | 0 | 0.53
3 | O=C(CCl)Nc1cc2c(cc1Cl)OCO2 [PCM-0102209] | 58.1% | 47.1% | 70.7% | 0.13 | 0 | 0 | 0.27
4 | COC(=O)c1ccc(NC(=O)CCl)cc1 [PCM-0102204] | 22.5% | 3.8% | 56.2% | 0 | 0 | 0 | 0
5 | CC(NC(=O)CCl)c1ccc2c(c1)OCCO2 (stereo not drawn) [PCM-0102342] | 93.8% | 73.1% | 87.2% | 0.08 | 0 | 0 | 0.57
6 | O=C(CCl)NCC1CCS(=O)(=O)C1 (stereo not drawn) [PCM-0102896] | 102% | 117% | 92.3% | 0 | 0 | 0 | 0.23
7 | O=C(CCl)NNC(=O)C1COc2ccccc2O1 (stereo not drawn) [PCM-0102384] | 86.6% | 90.7% | 70.3% | 0 | 0 | 0 | 0.27
8 | Cc1nc(NC(=O)CCl)c(Cl)cc1Cl [PCM-0102206] | 110% | 101% | 105% | 0 | 0 | 0 | 0
9 | C=CC(=O)NCc1ccon1 [PCM-0102482] | 98.9% | 90.3% | 92.9% | 0 | 0 | 0 | 0
10 | NS(=O)(=O)c1cccc(NC(=O)CCl)c1 [PCM-0102162] | 17.4% | 1.1% | 35.4% | 0 | 0 | 0 | 0.58
11 | C=CC(=O)N1CCCC2(CCS(=O)(=O)C2)C1 (stereo not drawn) [PCM-0102600] | 107% | 98.9% | 121% | 0.05 | 0 | 0 | 0
12 | Cc1ccc(CN(C)C(=O)CCl)cc1 [PCM-0103017] | 67.7% | 58.2% | 73.9% | 0.09 | 0 | 0 | 0
13 | C=CC(=O)N1CCCC(Cc2nccn2C)C1 (stereo not drawn) [PCM-0102433] | 94.7% | 92.9% | 97.8% | 0.2 | 0 | 0.44 | 0.26
14 | O=C(CCl)Nc1ccc([N+](=O)[O-])cc1C(F)(F)F [PCM-0102406] | 81.5% | 71.9% | 83.1% | 0 | 0 | 0 | 0
15 | C=CC(=O)Nc1ccc(OC)c(F)c1 [PCM-0102995] | 104% | 80.5% | 106% | 0 | 0 | 0 | 0
16 | CCN(C(=O)CCl)c1ccccc1C [PCM-0102980] | 93.4% | 66.1% | 85.7% | 0.43 | 0.07 | 0 | 0
17 | Cc1ccc(CN(C)C(=O)CCl)o1 [PCM-0102399] | 25.7% | 31.8% | 56.5% | 0.05 | 0 | 0 | 0
18 | COC(=O)c1c(NC(=O)CCl)sc2c1CCC2 [PCM-0102542] | 18.1% | 18.6% | 70.6% | 0.14 | 0 | 0 | 0
19 | C=CC(=O)NC1(CO)Cc2ccccc2C1 [PCM-0102446] | 101% | 88.4% | 103% | 0.38 | 0 | 0 | 0
20 | O=C(CCl)N1CCN(c2ncc(Cl)cc2Cl)CC1 [PCM-0103022] | 3.6% | 13.4% | 36.4% | 0.22 | 0 | 0 | 0
21 | CCC1CN(C(=O)CCl)CCO1 (stereo not drawn) [PCM-0102436] | 85.5% | 71.4% | 79.3% | 0 | 0 | 0 | 0
22 | Cc1ccsc1CN(C)C(=O)CCl [PCM-0102785] | 22.2% | 36% | 56.7% | 0.2 | 0 | 0 | 0
23 | O=C(CCl)Nc1ccc(Cl)c(Cl)c1 [PCM-0102112] | 2% | 1.4% | 26% | 0.18 | 0 | 0 | 0.3
24 | C=CC(=O)N1CCC(N2CCS(=O)(=O)CC2)CC1 [PCM-0102444] | 102% | 93.6% | 109% | 0 | 0 | 0 | 0
